From patent publication US12447170B2, “Use of maribavir in treatment regimens” (priority 2021, dated 2025)
pIC50: −log10 of the molar value. “Also recorded” adds a separate entry of the source.

Columns and labels:
Experiment in all cases: Reversible CYP inhibition in human liver microsomes (HLM)
Assay type in all cases: in vitro ADME
CYP1A2 = molecular target: T1, CYP1A2 (Homo sapiens, UniProt P05177); set-up: from tissue; host or cells: human liver microsomes
T1 sequence (P05177 1-516): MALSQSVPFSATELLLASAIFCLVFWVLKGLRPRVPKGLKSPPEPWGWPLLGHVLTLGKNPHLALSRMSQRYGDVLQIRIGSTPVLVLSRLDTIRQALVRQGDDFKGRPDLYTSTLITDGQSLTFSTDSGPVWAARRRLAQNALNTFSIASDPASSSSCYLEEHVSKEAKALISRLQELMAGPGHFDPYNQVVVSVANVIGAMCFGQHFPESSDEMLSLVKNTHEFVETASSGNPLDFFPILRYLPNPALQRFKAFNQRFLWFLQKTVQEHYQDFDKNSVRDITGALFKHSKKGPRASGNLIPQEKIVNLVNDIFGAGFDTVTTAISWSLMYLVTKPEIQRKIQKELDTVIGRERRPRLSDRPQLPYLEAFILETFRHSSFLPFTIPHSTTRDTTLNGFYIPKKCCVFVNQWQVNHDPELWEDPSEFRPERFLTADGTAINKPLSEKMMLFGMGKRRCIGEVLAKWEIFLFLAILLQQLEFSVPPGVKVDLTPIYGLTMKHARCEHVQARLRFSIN
Experimental: (§1) HLM were used to evaluate maribavir's half maximal inhibitory concentration (IC50) on inhibition of activities of nine CYP isoforms. Probe substrates were phenacetin (CYP1A2), coumarin (CYP2A6), bupropion (CYP2B6), paclitaxel (CYP2C8), tolbutamide (CYP2C9), (S)-mephenytoin (CYP2C19), dextromethorphan (CYP2D6), clorzoxazone (CYP2E1), and midazolam and testosterone (CYP3A4).
(§2) CYP activities with 0, 0.1, 0.3, 1, 3, 10, 30, and 100 μM of maribavir were evaluated.

CYP2C8 = molecular target: T2, CYP2C8 (Homo sapiens, UniProt P10632); set-up: from tissue; host or cells: human liver microsomes; settings: up to 100 μM
T2 sequence (P10632 1-490): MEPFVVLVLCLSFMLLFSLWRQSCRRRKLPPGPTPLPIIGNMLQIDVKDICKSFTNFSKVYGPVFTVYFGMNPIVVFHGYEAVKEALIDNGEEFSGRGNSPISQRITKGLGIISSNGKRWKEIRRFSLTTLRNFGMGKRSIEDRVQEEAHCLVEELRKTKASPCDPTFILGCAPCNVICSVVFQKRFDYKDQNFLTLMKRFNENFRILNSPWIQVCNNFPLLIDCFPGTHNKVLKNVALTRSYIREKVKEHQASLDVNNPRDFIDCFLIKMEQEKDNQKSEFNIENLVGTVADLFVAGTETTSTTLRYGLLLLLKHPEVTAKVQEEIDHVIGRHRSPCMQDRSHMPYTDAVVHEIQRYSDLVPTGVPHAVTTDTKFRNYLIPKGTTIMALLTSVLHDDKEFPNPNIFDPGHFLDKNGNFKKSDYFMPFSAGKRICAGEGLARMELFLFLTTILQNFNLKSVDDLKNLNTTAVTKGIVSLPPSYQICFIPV
Experimental: as §1, §2

CYP2C19 = CYP2C19 (Homo sapiens, UniProt P33261); set-up: from tissue; host or cells: human liver microsomes
CYP2C19, sequence (P33261 whole entry): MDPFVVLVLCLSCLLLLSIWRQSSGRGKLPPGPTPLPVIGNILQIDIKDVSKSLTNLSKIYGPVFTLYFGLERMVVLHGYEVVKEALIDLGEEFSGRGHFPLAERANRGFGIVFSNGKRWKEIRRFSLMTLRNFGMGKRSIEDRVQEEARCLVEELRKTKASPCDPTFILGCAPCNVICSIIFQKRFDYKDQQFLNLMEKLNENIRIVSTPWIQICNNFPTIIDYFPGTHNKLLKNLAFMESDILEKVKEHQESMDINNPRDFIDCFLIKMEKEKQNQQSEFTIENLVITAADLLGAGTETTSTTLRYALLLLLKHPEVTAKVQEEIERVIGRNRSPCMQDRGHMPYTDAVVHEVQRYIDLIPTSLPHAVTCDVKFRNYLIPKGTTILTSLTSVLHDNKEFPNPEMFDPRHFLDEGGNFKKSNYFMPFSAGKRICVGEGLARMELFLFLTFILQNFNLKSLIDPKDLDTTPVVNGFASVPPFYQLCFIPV
Experimental: as §1, §2

CYP2C9 = CYP2C9 (Homo sapiens, UniProt P11712); set-up: from tissue; host or cells: human liver microsomes
CYP2C9, sequence (P11712 whole entry): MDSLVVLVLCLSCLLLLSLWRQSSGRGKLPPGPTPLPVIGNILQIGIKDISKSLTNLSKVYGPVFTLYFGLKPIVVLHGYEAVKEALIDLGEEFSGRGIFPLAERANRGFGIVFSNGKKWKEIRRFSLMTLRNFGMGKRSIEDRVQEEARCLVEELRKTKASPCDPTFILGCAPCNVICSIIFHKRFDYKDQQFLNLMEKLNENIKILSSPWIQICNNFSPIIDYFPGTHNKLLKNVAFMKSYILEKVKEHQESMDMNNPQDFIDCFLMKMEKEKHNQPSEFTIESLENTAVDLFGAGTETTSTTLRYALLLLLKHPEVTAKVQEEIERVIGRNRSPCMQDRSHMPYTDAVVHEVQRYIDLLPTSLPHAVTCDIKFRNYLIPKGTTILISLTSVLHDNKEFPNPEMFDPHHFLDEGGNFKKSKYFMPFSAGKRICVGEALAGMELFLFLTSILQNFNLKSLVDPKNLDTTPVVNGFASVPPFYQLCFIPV
Experimental: as §1, §2

CYP2D6 = CYP2D6 (Homo sapiens, UniProt P10635); set-up: from tissue; host or cells: human liver microsomes; settings: up to 100 μM
CYP2D6, sequence (P10635 whole entry): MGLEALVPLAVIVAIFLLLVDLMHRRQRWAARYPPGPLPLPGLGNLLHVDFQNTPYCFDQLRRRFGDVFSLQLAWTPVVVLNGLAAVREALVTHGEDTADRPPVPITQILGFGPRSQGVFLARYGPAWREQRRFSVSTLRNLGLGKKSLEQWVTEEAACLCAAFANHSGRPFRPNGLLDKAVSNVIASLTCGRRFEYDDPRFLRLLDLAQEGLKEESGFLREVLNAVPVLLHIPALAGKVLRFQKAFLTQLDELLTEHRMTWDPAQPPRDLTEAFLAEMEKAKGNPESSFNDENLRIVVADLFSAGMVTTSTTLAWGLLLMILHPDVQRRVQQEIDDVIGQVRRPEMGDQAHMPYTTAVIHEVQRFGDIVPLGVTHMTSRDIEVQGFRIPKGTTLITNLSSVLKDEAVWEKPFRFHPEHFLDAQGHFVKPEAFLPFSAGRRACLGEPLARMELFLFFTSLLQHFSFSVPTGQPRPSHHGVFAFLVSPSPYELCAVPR
Experimental: as §1, §2

CYP2A6 = molecular target: T3, CYP2A6 (Homo sapiens, UniProt P11509); settings: up to 100 μM
T3 construct: from tissue; host or cells: human liver microsomes
T3 sequence (P11509 1-494): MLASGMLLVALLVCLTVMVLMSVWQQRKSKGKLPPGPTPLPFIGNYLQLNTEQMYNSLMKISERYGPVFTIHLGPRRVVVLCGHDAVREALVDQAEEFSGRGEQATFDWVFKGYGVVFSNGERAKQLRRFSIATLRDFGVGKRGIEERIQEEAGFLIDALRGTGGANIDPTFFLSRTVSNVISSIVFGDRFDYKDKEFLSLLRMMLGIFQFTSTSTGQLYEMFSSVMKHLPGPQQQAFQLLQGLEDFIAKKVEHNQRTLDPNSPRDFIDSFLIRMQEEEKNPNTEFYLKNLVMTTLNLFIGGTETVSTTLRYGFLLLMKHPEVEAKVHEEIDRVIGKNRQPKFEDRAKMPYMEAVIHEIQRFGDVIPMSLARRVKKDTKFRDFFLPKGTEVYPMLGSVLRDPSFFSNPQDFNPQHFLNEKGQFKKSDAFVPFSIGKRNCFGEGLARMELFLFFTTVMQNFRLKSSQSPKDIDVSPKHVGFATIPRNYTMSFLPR
Experimental: as §1, §2

CYP3A4 = molecular target: T4, CYP3A4 (Homo sapiens, UniProt P08684); settings: up to 100 μM
T4 construct: from tissue; host or cells: human liver microsomes
T4 sequence (P08684 whole entry): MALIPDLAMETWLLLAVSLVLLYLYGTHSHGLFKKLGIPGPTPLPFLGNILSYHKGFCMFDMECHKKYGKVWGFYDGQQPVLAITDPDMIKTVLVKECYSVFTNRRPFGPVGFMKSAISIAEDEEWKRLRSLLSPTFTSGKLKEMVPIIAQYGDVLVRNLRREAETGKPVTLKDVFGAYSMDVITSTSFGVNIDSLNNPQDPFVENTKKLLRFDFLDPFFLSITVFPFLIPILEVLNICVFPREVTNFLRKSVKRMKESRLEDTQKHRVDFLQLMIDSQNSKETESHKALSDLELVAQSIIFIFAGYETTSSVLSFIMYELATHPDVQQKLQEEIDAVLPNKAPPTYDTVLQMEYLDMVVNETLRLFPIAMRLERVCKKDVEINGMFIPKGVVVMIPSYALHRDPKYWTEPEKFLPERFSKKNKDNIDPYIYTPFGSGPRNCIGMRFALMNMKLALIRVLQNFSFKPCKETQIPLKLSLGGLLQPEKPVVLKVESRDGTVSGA
Experimental: as §1, §2

CYP2B6 = molecular target: T5, CYP2B6 (Homo sapiens, UniProt P20813); settings: up to 100 μM
T5 construct: from tissue; host or cells: human liver microsomes
T5 sequence (P20813 1-491): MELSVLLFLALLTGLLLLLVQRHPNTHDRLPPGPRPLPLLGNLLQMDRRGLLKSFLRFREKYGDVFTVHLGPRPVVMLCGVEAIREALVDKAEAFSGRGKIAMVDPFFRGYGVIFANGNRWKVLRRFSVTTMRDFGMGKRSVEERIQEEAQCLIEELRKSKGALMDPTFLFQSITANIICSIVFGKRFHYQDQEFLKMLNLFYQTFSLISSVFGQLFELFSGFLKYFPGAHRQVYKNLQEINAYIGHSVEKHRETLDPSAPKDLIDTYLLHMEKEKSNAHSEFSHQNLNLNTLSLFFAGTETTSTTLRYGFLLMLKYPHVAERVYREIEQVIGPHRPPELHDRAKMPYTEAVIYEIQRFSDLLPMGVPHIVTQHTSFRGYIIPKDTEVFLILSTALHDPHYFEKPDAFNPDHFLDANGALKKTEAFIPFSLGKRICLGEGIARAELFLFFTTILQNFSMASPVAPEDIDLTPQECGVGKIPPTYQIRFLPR
Experimental: as §1, §2

CC(C)Nc1nc2cc(Cl)c(Cl)cc2n1[C@H]1O[C@@H](CO)[C@H](O)[C@@H]1O [maribavir, (2S,3S,4R,5S)-2-(5,6-dichloro-2-(isopropylamino)-1H-benzo[d]imidazol-1-yl)-5-(hydroxymethyl)tetrahydrofuran-3,4-diol]
pIC50 (CYP1A2): 4.40
reversible inhibition of CYP2C8 (CYP2C8): not a reversible inhibitor; also recorded: no significant inhibition
pIC50 (CYP2C19): 4.46
pIC50 (CYP2C9): 4.74
reversible inhibition of CYP2D6 (CYP2D6): not a reversible inhibitor; also recorded: no significant inhibition
reversible inhibition of CYP2A6 (CYP2A6): not a reversible inhibitor; also recorded: no significant inhibition
reversible inhibition of CYP3A4 (CYP3A4): not a reversible inhibitor; also recorded: no significant inhibition
reversible inhibition of CYP2B6 (CYP2B6): not a reversible inhibitor; also recorded: no significant inhibition
